The text below walks through data of patent publication US20240016762A1, “DUAL ANALGESIC/ANTI-INFLAMMATORY COMPOSITIONS COMPRISING CB2 RECEPTOR AGONISTS, COMBINATIONS, AND METHODS OF USE THEREOF” (Altus Formulation lnc., priority 2020, published 2024).

One experiment deals with CB2 receptor (Homo sapiens, UniProt P34972). The note with it: Smoum et al. (2015); cited from earlier work.
For experiment [1], the system named is corneal cauterization and capsaicin challenge (corneal pain). The note with it: cited from earlier work; for ED50: Thapa et al (2018).
The subject of experiment [2] is plantar incision in the hind paw (post-operative incisional pain). The experiment is described as follows: Rat postoperative incisional (plantar incision) pain model, von Frey withdrawal threshold. The following applies: iv; for ED50: Rattus norvegicus, read-out: ED50 (median effective dose).
Description: The model developed was based on that described by Labuda et al. (supra). […] All test articles were administered intravenously via the tail vein as a single bolus.
Male Sprague Dawley rats (Charles River, St-Constant, Qc, Canada), were purchased and housed in auto-ventilated cages in a climate-controlled room on a 12-hour light/dark cycle. The animals were allowed free access to food pellets and water and weighed 200-225 g at the time of the testing.
Post-operative incisional pain was induced via a 1 cm plantar incision in the hind paw. Briefly, under deep anesthesia with isoflurane the plantar aspect of the hind paw was cleaned and sterilized using a 10% povidone-iodine solution after which a 1 cm longitudinal incision was made with a number 11 blade. The incision penetrated through the skin and fascia of the plantar aspect of the foot. The plantaris muscle was also elevated and incised longitudinally, the muscle origin remaining intact. After hemostatis with gentle pressure, the skin was closed with 2 mattress sutures of 5-0 nylon and the wound site covered with an antibacterial ointment. The rats were then placed in clear Plexiglas cages with plastic grid floors (8×8 mm) and allowed to acclimate.
The pain response was evaluated using the von Frey mechanical stimulation test employing von Frey filaments applied vertically to an area adjacent to the wound. […] The resistance to bending (reflective of the applied pressure) of the filament causing a withdrawal response was then recorded as the withdrawal threshold. […] After each filament application, animals were given a 5 minute test-free period after which the test was repeated the lowest force required for a withdrawal response from the 2 tests being recorded as the withdrawal threshold (WT). […]
The paw withdrawal threshold was again measured at 0.25, 1, 2, 3, 4, 5, 6, 7, 8 hours post treatment administration animal responses being plotted as withdrawal response/time curves for each dose given as before.

Sequence of CB2 receptor (P34972 whole entry): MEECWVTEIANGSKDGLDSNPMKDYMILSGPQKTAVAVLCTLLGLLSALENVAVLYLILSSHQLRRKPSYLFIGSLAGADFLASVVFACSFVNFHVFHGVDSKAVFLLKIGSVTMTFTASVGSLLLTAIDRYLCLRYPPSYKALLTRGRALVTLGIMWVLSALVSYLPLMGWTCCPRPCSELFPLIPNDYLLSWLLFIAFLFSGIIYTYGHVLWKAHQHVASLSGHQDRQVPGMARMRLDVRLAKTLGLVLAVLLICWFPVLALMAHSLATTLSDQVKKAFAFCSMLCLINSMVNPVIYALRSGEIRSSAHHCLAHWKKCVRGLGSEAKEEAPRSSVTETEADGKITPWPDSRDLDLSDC

Regarding `CCCCCCC(C)(C)c1cc(OC)c([C@@H]2C=C(CO)[C@@H]3C[C@H]2C3(C)C)c(OC)c1` (single isomer, unassigned) [Batch E2], the “Affinity for CB2 receptor relative to E1” value at CB2 receptor was “lower affinity for CB2 receptor than E1”.

As to `CCCCCCC(C)(C)c1cc(OC)c([C@@H]2C=C(CO)[C@@H]3C[C@H]2C3(C)C)c(OC)c1` [HU-308], in experiment [1] (1.5% solution in soybean oil, Thapa et al. (2018)), the Pain score is on record as 17. In addition, the Analgesic effect entry in experiment [1] (doses lower than 1.5%, Thapa et al. (2018)) was “failed to generate an analgesic effect”.

Regarding `C=C(C)[C@@H]1CCC(C)=C[C@H]1c1c(O)cc(CCCCC)cc1O` [CBD], the ED50 in experiment [1] is on record as 5%.

Regarding `Cc1ccc(-c2cc(C(F)(F)F)nn2-c2ccc(S(N)(=O)=O)cc2)cc1` [celecoxib], the ED50 in experiment [2] stood at 22.3 mg/kg.

On to `CCCCCc1cc(O)c2c(c1)OC(C)(C)[C@@H]1CC=C(C)C[C@@H]21` [A8 THC], for which the ED50 in experiment [1] is 1%.

On to `O=C(c1ccccc1)c1ccc2n1CCC2C(=O)O` (centres unmarked) [Ketorolac, ketorolac], for which, in experiment [2], the ED50 is 23.1 mg/kg and the “Dose/response relationship of AUC0.25-8 hr” value was “clear dose response effect”.
